PubChem BioAssay AID330 (DTP/NCI, 2004)
“And” between values parts separate entries of the source, which are not always exact repeats. Equal values may be shown once. Toxic doses and inconclusive results are not listed. Rule for the calls: active = survival T/C of 150% or more; inactive = T/C below 125% in these data. Square brackets hold non-standard residues; d marks the D form. Peptide text beside a SMILES is read from it. ξ: configuration not given here. ξL = CC(C)CC(N)C(=O)O

Test system: P388 leukemia ip, CD2F1 mice, survival T/C
Assay: NCI In Vivo Anticancer Drug Screen. Data for tumor model P388 Leukemia (intraperitoneal) in CD2F1 (CDF1) mice
Conditions: endpoint: median survival time, higher = longer survival
Procedure, shortened: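 Mice carrying the transplanted tumor received test compound or vehicle. Survival was recorded in each group, and the value is the treated-group measurement divided by that of the vehicle-treated control group.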

[1] = dose: 12.5 mg/kg/injection, schedule: Q01DX009 (ip), vehicle: saline
[2] = dose: 25.0 mg/kg/injection, schedule: Q01DX009 (ip), vehicle: saline
[3] = dose: 200.0 mg/kg/injection, schedule: Q01DX009 (ip), vehicle: saline
[4] = dose: 50.0 mg/kg/injection, schedule: Q01DX009 (ip), vehicle: saline
[5] = dose: 100.0 mg/kg/injection, schedule: Q01DX009 (ip), vehicle: saline
[6] = dose: 60.0 mg/kg/injection, schedule: Q01DX005 (ip), vehicle: saline with Tween-80
[7] = dose: 120.0 mg/kg/injection, schedule: Q01DX005 (ip), vehicle: saline with Tween-80
[8] = dose: 50.0 mg/kg/injection, schedule: Q01DX005 (ip), vehicle: saline
[9] = dose: 50.0 mg/kg/injection, schedule: Q01DX005 (ip), vehicle: Klucel (hydroxypropylcellulose) (HPC)
[10] = dose: 100.0 mg/kg/injection, schedule: Q01DX005 (ip), vehicle: Klucel (hydroxypropylcellulose) (HPC)
[11] = dose: 200.0 mg/kg/injection, schedule: Q01DX005 (ip), vehicle: Klucel (hydroxypropylcellulose) (HPC)
[12] = dose: 240.0 mg/kg/injection, schedule: Q01DX005 (ip), vehicle: saline with Tween-80
[13] = dose: 12.5 mg/kg/injection, schedule: Q01DX009 (ip), vehicle: saline with Tween-80
[14] = dose: 25.0 mg/kg/injection, schedule: Q01DX009 (ip), vehicle: saline with Tween-80
[15] = dose: 100.0 mg/kg/injection, schedule: Q01DX009 (ip), vehicle: Klucel (hydroxypropylcellulose) (HPC)
[16] = dose: 200.0 mg/kg/injection, schedule: Q01DX009 (ip), vehicle: Klucel (hydroxypropylcellulose) (HPC)
[17] = dose: 100.0 mg/kg/injection, schedule: Q04DX003 (ip), vehicle: saline
[18] = dose: 200.0 mg/kg/injection, schedule: Q04DX003 (ip), vehicle: saline

Measured: T/C

N#CN(Cc1ccccc1)Cc1ccccc1.[I][Sn]([c]1ccccc1)([c]1ccccc1)[c]1ccccc1
inactive: dose: 1.5 mg/kg/injection, schedule: Q01DX005 (ip), vehicle: saline with Tween-80 101 % of control | dose: 3.0 mg/kg/injection, schedule: Q01DX005 (ip), vehicle: saline with Tween-80 108 % of control | dose: 6.0 mg/kg/injection, schedule: Q01DX005 (ip), vehicle: saline with Tween-80 100 % of control | dose: 6.25 mg/kg/injection, schedule: Q01DX005 (ip), vehicle: saline with Tween-80 94 % of control

OCC[CH2][Pb]([c]1ccccc1)([c]1ccccc1)[c]1ccccc1
inactive: dose: 0.78 mg/kg/injection, schedule: Q01DX009 (ip), vehicle: Klucel (hydroxypropylcellulose) (HPC) 98 % of control and 105 % of control | dose: 1.56 mg/kg/injection, schedule: Q01DX009 (ip), vehicle: Klucel (hydroxypropylcellulose) (HPC) 100 % of control and 104 % of control and 111 % of control | dose: 3.13 mg/kg/injection, schedule: Q01DX009 (ip), vehicle: Klucel (hydroxypropylcellulose) (HPC) 104 % of control and 110 % of control and 112 % of control | dose: 6.25 mg/kg/injection, schedule: Q01DX009 (ip), vehicle: Klucel (hydroxypropylcellulose) (HPC) 113 % of control and 118 % of control

COc1ccc(C(=O)Nc2ccccc2CCC2CCCCN2C)cc1 (stereo unspecified)
inactive: dose: 6.25 mg/kg/injection, schedule: Q01DX009 (ip), vehicle: saline 95 % of control | [1] 95 % of control | [2] 92 % of control | dose: 25.0 mg/kg/injection, schedule: Q01DX009 (ip), vehicle: suspension in saline 100 % of control

O=C(O)c1cncc(C(=O)NCO)c1
inactive: [1] 101 % of control | [2] 101 % of control and 91 % of control | [3] 99 % of control and 103 % of control and 91 % of control

CC1OC2COC(C)OC2C(C2CN2)O1 (stereo unspecified)
inactive: [4] 110 % of control | [5] 100 % of control | [3] 117 % of control

COC(=O)c1nc(N)nc(C(=O)OC)c1C(=O)c1ccc(C)cc1
inactive: [6] 98 % of control | [7] 100 % of control

Nc1nnc2nc(C3(c4nc5nnc(N)n5[nH]c4=O)CCCC3=O)c(=O)[nH]n12
inactive: [8] 106 % of control | dose: 100.0 mg/kg/injection, schedule: Q01DX005 (ip), vehicle: saline 94 % of control | dose: 200.0 mg/kg/injection, schedule: Q01DX005 (ip), vehicle: saline 106 % of control

CC(C)CC(NC(=O)CN)C(=O)NCC(=O)NCC(=O)O (stereo unspecified) (H-G[ξL]GG-OH)
inactive: [9] 100 % of control | [10] 102 % of control | [11] 95 % of control

O=S(=O)(O)CCNC(=S)C(=S)NCCS(=O)(=O)O
inactive: [4] 100 % of control | [5] 100 % of control | [3] 101 % of control

COc1ccccc1OCC(Cn1c(=O)nc(-c2ccccc2)c2cc(Cl)ccc21)OC(N)=O (stereo unspecified)
inactive: dose: 50.0 mg/kg/injection, schedule: Q01DX005 (ip), vehicle: saline with Tween-80 104 % of control | dose: 100.0 mg/kg/injection, schedule: Q01DX005 (ip), vehicle: saline with Tween-80 100 % of control | dose: 200.0 mg/kg/injection, schedule: Q01DX005 (ip), vehicle: saline with Tween-80 95 % of control

C[N+](C)([O-])c1ccc(C(=O)C2CCCCC2)cc1
inactive: dose: 100.0 mg/kg/injection, schedule: Q04DX002 (ip), vehicle: saline 101 % of control | dose: 200.0 mg/kg/injection, schedule: Q04DX002 (ip), vehicle: saline 99 % of control | dose: 400.0 mg/kg/injection, schedule: Q04DX002 (ip), vehicle: saline 103 % of control

CCC(/C=C/c1ccccc1)=N\Nc1ccc(C)cc1
inactive: [6] 107 % of control | [7] 117 % of control | [12] 114 % of control

Cc1cc(N2C(=O)CCSC2=S)ccc1Br
inactive: dose: 50.0 mg/kg/injection, schedule: Q01DX009 (ip), vehicle: suspension in saline 87 % of control | dose: 100.0 mg/kg/injection, schedule: Q01DX009 (ip), vehicle: suspension in saline 104 % of control | dose: 200.0 mg/kg/injection, schedule: Q01DX009 (ip), vehicle: suspension in saline 116 % of control

O=S(=O)(C(Br)CBr)C(Br)CBr (stereo unspecified)
inactive: dose: 6.25 mg/kg/injection, schedule: Q01DX009 (ip), vehicle: saline with Tween-80 113 % of control | [13] 118 % of control | [14] 122 % of control

C[C-]=O.C[C-]=O.[C-]#[O+].[C-]#[O+].[C-]#[O+].[C-]#[O+].[Re]
inactive: dose: 12.5 mg/kg/injection, schedule: Q01DX005 (ip), vehicle: Klucel (hydroxypropylcellulose) (HPC) 101 % of control | dose: 25.0 mg/kg/injection, schedule: Q01DX005 (ip), vehicle: Klucel (hydroxypropylcellulose) (HPC) 96 % of control | [9] 93 % of control

CS/C(=N\N=C(/C)c1ccccn1)SS/C(=N/N=C(\C)c1ccccn1)SC
inactive: dose: 12.5 mg/kg/injection, schedule: Q01DX005 (ip), vehicle: saline + Tween-80 + alcohol 98 % of control | dose: 25.0 mg/kg/injection, schedule: Q01DX005 (ip), vehicle: saline + Tween-80 + alcohol 97 % of control | dose: 50.0 mg/kg/injection, schedule: Q01DX005 (ip), vehicle: saline + Tween-80 + alcohol 101 % of control and 103 % of control | dose: 100.0 mg/kg/injection, schedule: Q01DX005 (ip), vehicle: saline + Tween-80 + alcohol 111 % of control

O=P(C(=S)Nc1ccccc1Cl)(c1ccccc1)c1ccccc1
inactive: dose: 50.0 mg/kg/injection, schedule: Q01DX009 (ip), vehicle: Klucel (hydroxypropylcellulose) (HPC) 100 % of control | [15] 91 % of control | [16] 90 % of control

NC(=O)CCN1CCCN(CCC(N)=O)CCN(CCC(N)=O)CCCN(CCC(N)=O)CC1
inactive: [6] 102 % of control | [7] 110 % of control | [12] 94 % of control

COc1cc2c(cc1-c1coc3cc4occc4cc3c1=O)OCO2
inactive: dose: 8.75 mg/kg/injection, schedule: Q01DX005 (ip), vehicle: saline with Tween-80 87 % of control | dose: 35.0 mg/kg/injection, schedule: Q01DX005 (ip), vehicle: saline with Tween-80 87 % of control | dose: 70.0 mg/kg/injection, schedule: Q01DX005 (ip), vehicle: saline with Tween-80 89 % of control | dose: 140.0 mg/kg/injection, schedule: Q01DX005 (ip), vehicle: saline with Tween-80 99 % of control

CCN(CC)CCOc1ccc(N=Nc2ccc(N)nc2N)cc1
inactive: [6] 102 % of control | [7] 93 % of control | [12] 101 % of control

Cc1cnc(C)n2c(C)nnc12
inactive: [17] 99 % of control | [18] 96 % of control

CS(=O)(=O)CS(=O)CS(=O)CS(=O)CC(NC(=O)CCC(N)C(=O)O)C(=O)O (stereo unspecified)
inactive: dose: 12.5 mg/kg/injection, schedule: Q01DX005 (ip), vehicle: saline 96 % of control | dose: 25.0 mg/kg/injection, schedule: Q01DX005 (ip), vehicle: saline 98 % of control | [8] 97 % of control | dose: 100.0 mg/kg/injection, schedule: Q01DX005 (ip), vehicle: suspension in saline 108 % of control

O=c1oc(-c2cccc(I)c2)ns1
inactive: [15] 111 % of control | [16] 114 % of control

O=C1CS/C(=N\C(=O)Nc2cccc(C(F)(F)F)c2)N1
inactive: [1] 103 % of control | [2] 94 % of control | dose: 50.0 mg/kg/injection, schedule: Q01DX009 (ip), vehicle: saline with Tween-80 87 % of control

CN1C(=O)N(C)C2(C#N)CC2([N+](=O)[O-])C1=O (stereo unspecified)
inactive: [13] 89 % of control | [14] 90 % of control

CC1CCC2(C(=O)O)CCC3(C)C(=CCC4C5(C)CC(O)C(O)C(C)(C(=O)O)C5CCC43C)C2C1(C)O (stereo unspecified)
inactive: dose: 33.0 mg/kg/injection, schedule: Q01DX001 (ip), vehicle: saline with Tween-80 100 % of control | dose: 50.0 mg/kg/injection, schedule: Q01DX001 (ip), vehicle: saline with Tween-80 100 % of control | dose: 75.0 mg/kg/injection, schedule: Q01DX001 (ip), vehicle: saline with Tween-80 90 % of control

CC(C)c1nc2c(c(=O)o1)CCS2
inactive: [9] 100 % of control | [10] 98 % of control | [11] 98 % of control

C1=CC2C3CSCC3C1C1CC21 (stereo unspecified)
inactive: [17] 105 % of control | [18] 103 % of control | dose: 400.0 mg/kg/injection, schedule: Q04DX003 (ip), vehicle: saline 102 % of control
